Data from patent US8003666B2, “Hydrate for medical purposes” (priority 2006, dated 2011).
Values after ≈ are worked out from the molar mass of the structure shown.

Legend:
[1] = system: P. vulgaris, 08601; test: Antibacterial activity MIC, Japanese Society of Chemotherapy standard procedure; assay type: cell-based; settings: Proteus vulgaris
[2] = system: E. coli NIHJ; test: as above; settings: Escherichia coli
[3] = system: S. marscecens, 10100; test: as above
[4] = system: P. aeruginosa, 32104; test: as above; settings: Pseudomonas aeruginosa
[5] = system: P. aeruginosa, 32121; test: as above; settings: Pseudomonas aeruginosa
[6] = system: S. aureus, 209P; test: as above; settings: Staphylococcus aureus
[7] = system: S. epidermidis, 56500; test: as above; settings: Staphylococcus epidermidis
[8] = system: E. faecalis, ATCC 19433; test: as above; settings: Enterococcus faecalis, ATCC19433
[9] = system: S. aureus, 87037; test: as above; settings: Staphylococcus aureus
[10] = system: S. pneumoniae, J24; test: as above; settings: Streptococcus pneumoniae
[11] = system: Mycobacterium tuberculosis (sensitive bacteria); test: Anti-mycobacterium tuberculosis activity MIC, sensitive bacteria; assay type: cell-based
[12] = system: E. coli E77156 strain; test: Therapeutic efficacy in rat simple cystitis model (E. coli); assay type: in vivo; settings: orally once at 5, 20 and 80 mg/kg on the next day of infection, in comparison with the count at beginning of the treatment, FIG. 2
[13] = Moisture sorption and desorption behavior; assay type: physicochemical; settings: atmospheric pressure type automatic water vapor adsorption device; FIG. 5
From the text: Moisture sorption and desorption behavior was examined with an atmospheric pressure type automatic water vapor adsorption device for 7-[(7S)-7-amino-7-methyl-5-azaspiro[2.4]heptan-5-yl]-6-fluoro-1-[(1R,2S)-2-fluorocyclopropyl]-8-methoxy-1,4-dihydro-4-oxoquinoline-3-carboxylic acid hemihydrate obtained in Example 1.

[14] = Change in moisture sorption and desorption after thermal dehydration; assay type: physicochemical; settings: thermal dehydration (60° C.); FIG. 6
Protocol: Change in moisture sorption and desorption after thermal dehydration (60° C.) was examined for 7-[(7S)-7-amino-7-methyl-5-azaspiro[2.4]heptan-5-yl]-6-fluoro-1-[(1R,2S)-2-fluorocyclopropyl]-8-methoxy-1,4-dihydro-4-oxoquinoline-3-carboxylic acid hemihydrate obtained in Example 1.

[15] = Change in crystalline form after thermal dehydration; assay type: physicochemical; settings: X-ray diffraction on thermal treatments; FIG. 7
From the text: Change in crystalline form by thermal treatment was examined for 7-[(7S)-7-amino-7-methyl-5-azaspiro[2.4]heptan-5-yl]-6-fluoro-1-[(1R,2S)-2-fluorocyclopropyl]-8-methoxy-1,4-dihydro-4-oxoquinoline-3-carboxylic acid hemihydrate obtained in Example 1.

[16] = Crystal stability on storage at controlled relative humidity; assay type: physicochemical; settings: 25° C., 3 days
Protocol: Weight change and crystalline form were examined as to 7-[(7S)-7-amino-7-methyl-5-azaspiro[2.4]heptan-5-yl-6-fluoro-1-[(1R,2S)-2-fluorocyclopropyl]-8-methoxy-1,4-dihydro-4-oxoquinoline-3-carboxylic acid hemihydrate obtained in Example 1 by being stored under the condition of 0, 52 or 93% of relative humidity, at 25° C. for 3 days. The crystalline form was evaluated by measuring with powder X-ray diffraction and thermal analysis.

[17] = assay type: physicochemical
Protocol: 7-[(7S)-7-amino-7-methyl-5-azaspiro[2.4]heptan-5-yl]-6-fluoro-1-[(1R,2S)-2-fluorocyclopropyl]-8-methoxy-1,4-dihydro-4-oxoquinoline-3-carboxylic acid hemihydrate obtained in Example 1 was each stored for 2 weeks under wet heat condition (40° C., 75% RH), dry heat condition (50° C., of 0% RH) and photo irradiation condition.

SMILES: C[C@H]1COc2c(N3CCN(C)CC3)c(F)cc3c(=O)c(C(=O)O)cn1c23 [LVFX, levofloxacin]
- MIC [1]: 0.012 µg/mL (≈ 0.0332 µM)
- MIC [2]: 0.012 µg/mL (≈ 0.0332 µM)
- MIC [3]: 0.1 µg/mL (≈ 0.277 µM)
- MIC [4]: 0.2 µg/mL (≈ 0.553 µM)
- MIC [5]: 0.1 µg/mL (≈ 0.277 µM)
- MIC [6]: 0.2 µg/mL (≈ 0.553 µM)
- MIC [7]: 0.39 µg/mL (≈ 1.08 µM)
- MIC [8]: 0.78 µg/mL (≈ 2.16 µM)
- MIC [9]: > 6.25 µg/mL
- MIC [10]: 0.78 µg/mL (≈ 2.16 µM)

SMILES: CO[C@H]1/C=C/O[C@@]2(C)Oc3c(C)c(O)c4c(O)c(c(/C=N/N5CCN(C)CC5)c(O)c4c3C2=O)NC(=O)/C(C)=C\C=C\[C@H](C)[C@H](O)[C@@H](C)[C@@H](O)[C@@H](C)[C@H](OC(C)=O)[C@@H]1C [RFP, rifampicin]
- MIC ([11]; H37RV, strain H37Rv): 0.125 µg/mL (≈ 0.152 µM)
- MIC ([11]; strain Kurono): 0.06 µg/mL (≈ 0.0729 µM)
- MIC ([11]; strain Ravenel): 0.125 µg/mL (≈ 0.152 µM)
- MIC ([11]; strain TB-s 2): 0.03 µg/mL (≈ 0.0365 µM)
- MIC ([11]; strain TB-s 3): 0.125 µg/mL (≈ 0.152 µM)
- MIC ([11]; strain TB-s 4): 0.06 µg/mL (≈ 0.0729 µM)
- MIC ([11]; strain TB-s 5): 0.06 µg/mL (≈ 0.0729 µM)
- MIC ([11]; strain TB-s 6): 0.125 µg/mL (≈ 0.152 µM)
- MIC ([11]; strain TB-s 7): 0.06 µg/mL (≈ 0.0729 µM)
- MIC ([11]; strain TB-s 8): 0.015 µg/mL (≈ 0.0182 µM)
- MIC ([11]; strain TB-s 9): 0.06 µg/mL (≈ 0.0729 µM)
- MIC ([11]; strain TB-s 10): 0.06 µg/mL (≈ 0.0729 µM)
- MIC ([11]; strain TB-s 11): 0.06 µg/mL (≈ 0.0729 µM)
- MIC ([11]; strain TB-s 12): 0.125 µg/mL (≈ 0.152 µM)
- MIC ([11]; strain TB-s 13): 0.06 µg/mL (≈ 0.0729 µM)
- MIC ([11]; strain TB-s 14): 0.03 µg/mL (≈ 0.0365 µM)
- MIC ([11]; strain TB-s 15): 0.06 µg/mL (≈ 0.0729 µM)
- MIC ([11]; strain TB-s 16): 0.06 µg/mL (≈ 0.0729 µM)
- MIC ([11]; strain TB-s 17): 0.06 µg/mL (≈ 0.0729 µM)
- MIC ([11]; strain TB-s 18): 0.03 µg/mL (≈ 0.0365 µM)
- MIC ([11]; strain TB-s 19): 0.125 µg/mL (≈ 0.152 µM)
- MIC ([11]; strain TB-s 20): 0.25 µg/mL (≈ 0.304 µM)
- MIC ([11]; strain TB-s 21): 0.03 µg/mL (≈ 0.0365 µM)
- MIC ([11]; strain TB-s 22): 0.015 µg/mL (≈ 0.0182 µM)

SMILES: COc1c(N2CCNC(C)C2)c(F)cc2c(=O)c(C(=O)O)cn(C3CC3)c12 (centres unmarked) [GTFX, gatifloxacin]
- MIC [1]: 0.006 µg/mL (≈ 0.016 µM)
- MIC [2]: 0.006 µg/mL (≈ 0.016 µM)
- MIC [3]: 0.1 µg/mL (≈ 0.266 µM)
- MIC [4]: 0.2 µg/mL (≈ 0.533 µM)
- MIC [5]: 0.1 µg/mL (≈ 0.266 µM)
- MIC [6]: 0.05 µg/mL (≈ 0.133 µM)
- MIC [7]: 0.2 µg/mL (≈ 0.533 µM)
- MIC [8]: 0.39 µg/mL (≈ 1.04 µM)
- MIC [9]: 1.56 µg/mL (≈ 4.16 µM)
- MIC [10]: 0.2 µg/mL (≈ 0.533 µM)

SMILES: O=C(O)c1cn(C2CC2)c2cc(N3CCNCC3)c(F)cc2c1=O [CPFX, ciprofloxacin]
- MIC [1]: ≤ 0.003 µg/mL
- MIC [2]: ≤ 0.003 µg/mL
- MIC [3]: 0.025 µg/mL (≈ 0.0754 µM)
- MIC [4]: 0.05 µg/mL (≈ 0.151 µM)
- MIC [5]: 0.025 µg/mL (≈ 0.0754 µM)
- MIC [6]: 0.1 µg/mL (≈ 0.302 µM)
- MIC [7]: 0.2 µg/mL (≈ 0.604 µM)
- MIC [8]: 0.78 µg/mL (≈ 2.35 µM)
- MIC [9]: > 6.25 µg/mL
- MIC [10]: 0.39 µg/mL (≈ 1.18 µM)

SMILES: COc1c(N2CC3(CC3)[C@](C)(N)C2)c(F)cc2c(=O)c(C(=O)O)cn([C@@H]3C[C@@H]3F)c12 [Hemihydrate, 7-[(7S)-7-Amino-7-methyl-5-azaspiro[2.4]heptan-5-yl]-6-fluoro-1-[(1R,2S)-2-fluorocyclopropyl]-8-methoxy-1,4-dihydro-4-oxoquinoline-3-carboxylic acid hemihydrate]
- MIC [1]: 0.025 µg/mL
- MIC ([11]; H37RV, strain H37Rv): 0.03 µg/mL
- MIC ([11]; strain Kurono): 0.03 µg/mL
- MIC ([11]; strain Ravenel): 0.03 µg/mL
- MIC ([11]; strain TB-s 2): 0.06 µg/mL
- MIC ([11]; strain TB-s 3): 0.06 µg/mL
- MIC ([11]; strain TB-s 4): 0.06 µg/mL
- MIC ([11]; strain TB-s 5): 0.06 µg/mL
- MIC ([11]; strain TB-s 6): 0.06 µg/mL
- MIC ([11]; strain TB-s 7): 0.06 µg/mL
- MIC ([11]; strain TB-s 8): 0.03 µg/mL
- MIC ([11]; strain TB-s 9): 0.06 µg/mL
- MIC ([11]; strain TB-s 10): 0.03 µg/mL
- MIC ([11]; strain TB-s 11): 0.06 µg/mL
- MIC ([11]; strain TB-s 12): 0.125 µg/mL
- MIC ([11]; strain TB-s 13): 0.06 µg/mL
- MIC ([11]; strain TB-s 14): 0.06 µg/mL
- MIC ([11]; strain TB-s 15): 0.06 µg/mL
- MIC ([11]; strain TB-s 16): 0.06 µg/mL
- MIC ([11]; strain TB-s 17): 0.06 µg/mL
- MIC ([11]; strain TB-s 18): 0.06 µg/mL
- MIC ([11]; strain TB-s 19): 0.06 µg/mL
- MIC ([11]; strain TB-s 20): 0.06 µg/mL
- MIC ([11]; strain TB-s 21): 0.06 µg/mL
- MIC ([11]; strain TB-s 22): 0.03 µg/mL
- Bacterial count in the bladder [12]: statistically significant decrease in bacterial count
- Weight change as humidity changes [13]: ≤ 1%
- Moisture sorption and desorption after thermal dehydration [14]: rehydrated rapidly after being dehydrated
- Crystalline form after thermal dehydration [15]: had its crystalline state even after being dehydrated
- Weight Change (%) ([16]; 0% RH): 0.00%
- Crystalline form after storage ([16]; 0, 52 or 93% relative humidity, powder X-ray diffraction and thermal analysis): the crystalline form did not change
- Weight Change (%) ([16]; 52% RH): 0.43%
- Weight Change (%) ([16]; 93% RH): 0.61%
- Observation under photo irradiation condition ([17]; photo irradiation condition): color change and some decrease in remaining ratio
- Content under wet heat and dry heat condition ([17]; wet heat (40° C., 75% RH) and dry heat (50° C., 0% RH), 2 weeks): stable and its content was not decreased
- MIC [2]: 0.025 µg/mL
- MIC [3]: 0.1 µg/mL
- MIC [4]: 0.39 µg/mL
- MIC [5]: 0.2 µg/mL
- MIC [6]: 0.025 µg/mL
- MIC [7]: 0.1 µg/mL
- MIC [8]: 0.2 µg/mL
- MIC [9]: 0.78 µg/mL
- MIC [10]: 0.1 µg/mL
